Data: US12668584B2, “Heterocyclic compounds as kinase inhibitors for therapeutic uses” (National Health Research Institutes, priority 2019, dated 2026)

How the values were obtained:
[1] = biological target: T1, CSF1R kinase (recombinant N-terminal GST-CSF1R, residues L534-C972) (Homo sapiens, UniProt P07333); test: CSF1R Kinase-Glo assay; type: biochemical; details: 40 μM ATP, 30° C. 180 min, read-out: Enzymatic Assay CSF1R enzyme IC50
T1 construct: Recombinant N-terminal GST-CSF1R (CSF1R residues L534-C972) containing the CSFIR kinase domain; made in house; host or cells: Sf9 insect cells
T1 sequence (P07333 534-972): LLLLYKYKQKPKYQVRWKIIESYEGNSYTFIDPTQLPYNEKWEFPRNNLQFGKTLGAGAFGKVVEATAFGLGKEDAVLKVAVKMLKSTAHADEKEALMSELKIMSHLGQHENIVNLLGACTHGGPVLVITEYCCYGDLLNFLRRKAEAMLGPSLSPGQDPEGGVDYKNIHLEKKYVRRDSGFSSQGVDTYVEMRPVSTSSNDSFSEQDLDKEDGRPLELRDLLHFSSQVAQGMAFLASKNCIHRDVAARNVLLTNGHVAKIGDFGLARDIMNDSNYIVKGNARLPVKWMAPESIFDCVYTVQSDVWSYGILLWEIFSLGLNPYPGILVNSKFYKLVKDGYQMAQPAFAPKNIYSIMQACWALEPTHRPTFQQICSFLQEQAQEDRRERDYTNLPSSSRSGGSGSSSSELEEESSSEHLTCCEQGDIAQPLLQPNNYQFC
Description: A study was conducted to test certain compounds described in EXAMPLE 1 in inhibiting CSF1R kinase activity.
Activity of CSF1R kinase was determined using a CSF1R Kinase-Glo assay. Recombinant N-terminal GST-CSF1R (CSF1R residues L534-C972) containing the CSFIR kinase domain was expressed in Sf9 insect cells and purified. The kinase assay was carried out in 96-well plates at 30° C. for 180 min with the tested compounds in a final volume of 50 μl including the following components: 25 mM Tris-HCl pH 7.4, 4 mM MnCl2, 10 mM MgCl2, 0.01% BSA, 0.5 mM NA3VO4, 0.02% Triton X-100, 40 μM ATP, 2 mM DTT and 20 μM poly(Glu,Tyr) 4:1 peptide, and 600 ng recombinant GST-CSF1R. Following incubation, 50 μl Kinase-Glo Plus Reagent (Promega, Madison, WI, USA) was added and the mixture was incubated at 25° C. for 20 min. A 70-μL aliquot of each reaction mixture was transferred to a black microtiter plate and luminescence was measured on Wallac Vector 1420 multilabel counter (PerkinElmer, Shelton, CT, USA). Percentage inhibition values were obtained by comparison of reaction rate with the rates in control wells (i.e., in the absence of test compound). IC50 values were calculated from a series of percentage inhibition values determined at a range of test compound concentrations using GraphPad Prism version 6 software (GraphPad, San Diego, CA, USA).

[2] = test system: BaF3-CSF1R-1600 cells (express ETV6-CSF1R fusion protein); test: MTS cell viability assay, BaF3-CSF1R-1600; type: cell-based; details: 72 h, read-out: Cellular Proliferation Assay BaF3-CSF1R GI50
Description: (§1) Studies were conducted to evaluate […] anticancer activity of certain compounds described in EXAMPLE 1 using 3-(4,5-dimethylthiazol-2-yl)-5-(3-carboxymethoxyphenyl)-2-(4-sulfophenyl)-2H-tetrazolium) (MTS) cell viability assays. Results from these studies are shown in Table 2 below (see columns 3 and 4).
(§2) The cell lines M-NFS-60 (ATCC® CRL-1838™) and BaF3-CSF1R-1600 were obtained from American Type Culture Collection (ATCC, Manassas, VA, USA). The stable BaF3-CSF1R-1600 cell line expresses ETV6-CSF1R fusion protein consisting of N-terminal ETS-variant gene 6 protein (ETV6 residues M1-G337) and CSF1R tyrosine kinase (CSF1R residues L533-C972). The M-NSF-60 and BaF3-CSF1R-1600 cells were cultured in RPMI1640 medium supplemented with 10% fetal bovine serum, 0.05 mM 2-ME, 10 U/ml penicillin, and 10 µg/ml streptomycin at 37° C. and 5% CO2.
(§3) M-NFS-60 and BaF3-CSF1R-1600 cells were seeded in 96-well plates at a density of 10000 cells/100 μl and 8000 cells/100 μl per well, respectively, for 16 h and treated with vehicle or various concentrations of test compounds in medium for 72 h. Viable cells were quantified using the MTS method (Promega, Madison, WI, USA) according to manufacturer's recommended protocol. The results were determined by measuring absorbance at 490 nm using a plate reader (Victor 2). The GI50 value was defined as the amount of compound that caused 50% reduction in cell viability in comparison with DMSO-treated (vehicle) control and was calculated using Prism GraphPad Prism version 6 software (GraphPad).

M-NFS-60 cells = test: MTS cell viability assay, M-NFS-60; type: cell-based; details: 72 h, read-out: Cellular Proliferation Assay M-NFS-60 (nM) GI50
Description: as §1, §2, §3

| IC50 [1] [nM] | GI50 [2] [nM] | SMILES | GI50 (M-NFS-60 cells) [nM] |
| --- | --- | --- | --- |
| < 20 | 20 to 100 | CN(C)c1ccc2c(Oc3ccc(NC(=O)Nc4cccc(F)c4)cc3)ncnc2c1 [Compound 18] | 100 to 1000 |
| < 20 | < 20 | CN(C)c1ccc2c(Oc3ccc(NC(=O)Nc4ccc(Cl)cc4)cc3)ncnc2c1 [Compound 19] | 20 to 100 |
| < 20 | 20 to 100 | COC1CCN(c2ccc3c(Oc4ccc(NC(=O)Nc5ccc(Cl)cc5)cc4)ncnc3c2)CC1 [Compound 20] | 20 to 100 |
| < 20 | 20 to 100 | COc1ccc(NC(=O)Nc2ccc(Oc3ncnc4cc(N(C)C)ccc34)cc2)cc1 [Compound 21] | 20 to 100 |
| 20 to 100 | 20 to 100 | CN(C)C1CCN(c2ccc3c(Oc4ccc(NC(=O)NCc5ccc(C(F)(F)F)nc5)cc4)ncnc3c2)CC1 [Compound 23] | 20 to 100 |
| < 20 | 20 to 100 | COC1CCN(c2ccc3c(Oc4ccc(NC(=O)NCc5ccc(C(F)(F)F)nc5)cc4)ncnc3c2)CC1 [Compound 24] | 20 to 100 |
| 20 to 100 | 100 to 1000 | CN(C)c1ccc2c(Oc3ccc(NC(=O)NCc4ccc(C(F)(F)F)nc4)cc3Cl)ncnc2c1 [Compound 25] | > 1000 |
| 20 to 100 | 20 to 100 | COc1cc2nccc(Oc3ccc(NC(=O)NCc4ccc(C(F)(F)F)nc4)cc3)c2cc1OC [Compound 26] | 100 to 1000 |
| 20 to 100 | < 20 | CN1CCN(c2ccc3c(Oc4ccc(NC(=O)NCc5ccc(C(F)(F)F)nc5)cc4)ncnc3c2)CC1 [Compound 28] | 20 to 100 |
| < 20 | 20 to 100 | O=C(NCc1ccc(C(F)(F)F)nc1)Nc1ccc(Oc2ncnc3cc(N4CCC(O)CC4)ccc23)cc1 [Compound 30, 1-(4-((7-(4-hydroxypiperidin-1-yl)quinazolin-4-yl)oxy)phenyl)-3-((6-(trifluoromethyl)pyridin-3-yl)methyl)urea] | 20 to 100 |
| 100 to 1000 | 100 to 1000 | O=C(NCc1ccc(C(F)(F)F)nc1)Nc1ccc(Oc2ncnc3cc(Br)ccc23)cc1 [Compound 31, 1-(4-((7-Bromoquinazolin-4-yl)oxy)phenyl)-3-((6-(trifluoromethyl)pyridin-3-yl)methyl)urea] | > 1000 |
| 20 to 100 | 100 to 1000 | O=C(NCc1ccc(C(F)(F)F)nc1)Nc1ccc(Oc2ncnc3cc(F)ccc23)cc1 [Compound 32] | > 1000 |
| 20 to 100 | 100 to 1000 | CN(C)c1ccc2c(Oc3ccc(NC(=O)NCc4ccc(C(F)(F)F)nc4)c(Cl)c3)ncnc2c1 [Compound 33] | 100 to 1000 |
| < 20 | < 20 | C[C@@H]1CN(c2ccc3c(Oc4ccc(NC(=O)NCc5ccc(C(F)(F)F)nc5)cc4)ncnc3c2)C[C@H](C)N1 [Compound 34, 1-(4-((7-(3,5-Dimethylpiperazin-1-yl)quinazolin-4-yl)oxy)phenyl)-3-((6-(trifluoromethyl)pyridin-3-yl)methyl)urea] | 100 to 1000 |
| 20 to 100 | 20 to 100 | CN(CCO)c1ccc2c(Oc3ccc(NC(=O)NCc4ccc(C(F)(F)F)nc4)cc3)ncnc2c1 [Compound 40] | 100 to 1000 |
| < 20 | 20 to 100 | COc1cc(Oc2ncnc3cc(N(C)C)ccc23)ccc1NC(=O)NCc1ccc(C(F)(F)F)nc1 [Compound 42] | 100 to 1000 |
| 20 to 100 | 100 to 1000 | O=C(NCc1ccc(C(F)(F)F)nc1)Nc1ccc(Oc2ncnc3cc(N[C@@H]4CCCC[C@H]4O)ccc23)cc1 [Compound 43] | 100 to 1000 |
| < 20 | 20 to 100 | CN(C)CCN(C)c1ccc2c(Oc3ccc(NC(=O)NCc4ccc(C(F)(F)F)nc4)cc3)ncnc2c1 [Compound 44] | 100 to 1000 |
| < 20 | 20 to 100 | CN(CCCN1CCOCC1)c1ccc2c(Oc3ccc(NC(=O)NCc4ccc(C(F)(F)F)nc4)cc3)ncnc2c1 [Compound 45] | 100 to 1000 |
